Results: the NIST ThermoML archive (doi:10.1021/acs.jced.6b00430)
Numbers after ± are expanded uncertainties.

Assay: xn = mol fraction of the nth substance listed
Details: 100 kPa, Liquid; for mass density: Vibrating tube method; for electrical conductivity: Alternating current cell with electrodes; for viscosity: Concentric cylinders viscometry

Structure (SMILES): O=[PH](O)O [phosphonic acid] + CN(C)C=O
- mass density (318.15 K, x1 = 0.421): 1170.67 ± 10 kg/m3
- mass density (318.15 K, x1 = 0.4479): 1189.61 ± 10 kg/m3
- mass density (318.15 K, x1 = 0.4707): 1204.42 ± 10 kg/m3
- mass density (318.15 K, x1 = 0.493): 1218.59 ± 10 kg/m3
- mass density (318.15 K, x1 = 0.5074): 1227.51 ± 10 kg/m3
- mass density (318.15 K, x1 = 0.5196): 1237.92 ± 10 kg/m3
- mass density (318.15 K, x1 = 0.5429): 1253.45 ± 10 kg/m3
- mass density (318.15 K, x1 = 0.5724): 1275.06 ± 10 kg/m3
- mass density (318.15 K, x1 = 0.5925): 1289.1 ± 10 kg/m3
- mass density (318.15 K, x1 = 0.6245): 1311.81 ± 10 kg/m3
- mass density (318.15 K, x1 = 0.6554): 1339.01 ± 10 kg/m3
- mass density (318.15 K, x1 = 0.6753): 1347.93 ± 10 kg/m3
- mass density (318.15 K, x1 = 0.6923): 1362.29 ± 10 kg/m3
- mass density (318.15 K, x1 = 0.7142): 1382.56 ± 10 kg/m3
- mass density (318.15 K, x1 = 0.725): 1385.03 ± 10 kg/m3
- mass density (318.15 K, x1 = 0.7592): 1416.55 ± 10 kg/m3
- mass density (318.15 K, x1 = 0.7694): 1427.77 ± 10 kg/m3
- mass density (318.15 K, x1 = 0.7845): 1434.51 ± 10 kg/m3
- electrical conductivity (328.15 K, x1 = 0.1181): 0.0815 ± 0.0082 S/m
- electrical conductivity (328.15 K, x1 = 0.2984): 0.173 ± 0.017 S/m
- electrical conductivity (328.15 K, x1 = 0.3298): 0.183 ± 0.018 S/m
- electrical conductivity (328.15 K, x1 = 0.3968): 0.275 ± 0.028 S/m
- electrical conductivity (328.15 K, x1 = 0.4479): 0.316 ± 0.032 S/m
- electrical conductivity (328.15 K, x1 = 0.5761): 0.512 ± 0.051 S/m
- electrical conductivity (328.15 K, x1 = 0.6316): 0.71 ± 0.071 S/m
- electrical conductivity (328.15 K, x1 = 0.6554): 0.802 ± 0.08 S/m
- electrical conductivity (328.15 K, x1 = 0.682): 1.07 ± 0.11 S/m
- electrical conductivity (328.15 K, x1 = 0.7694): 1.77 ± 0.18 S/m
- electrical conductivity (328.15 K, x1 = 0.7832): 1.91 ± 0.19 S/m
- viscosity (328.15 K, x1 = 0.1973): 1.92 ± 0.12 mPa·s
- viscosity (328.15 K, x1 = 0.2507): 2.88 ± 0.17 mPa·s
- viscosity (328.15 K, x1 = 0.2984): 4.07 ± 0.25 mPa·s
- viscosity (328.15 K, x1 = 0.3115): 4.29 ± 0.26 mPa·s
- viscosity (328.15 K, x1 = 0.3491): 6.02 ± 0.36 mPa·s
- viscosity (328.15 K, x1 = 0.3968): 8.65 ± 0.52 mPa·s
- viscosity (328.15 K, x1 = 0.3988): 8.5 ± 0.51 mPa·s
- viscosity (328.15 K, x1 = 0.4107): 9.62 ± 0.58 mPa·s
- viscosity (328.15 K, x1 = 0.4479): 12.3 ± 0.7 mPa·s
- viscosity (328.15 K, x1 = 0.4968): 16.2 ± 1 mPa·s
- viscosity (328.15 K, x1 = 0.5074): 16 ± 1 mPa·s
- viscosity (328.15 K, x1 = 0.5503): 22 ± 1.3 mPa·s
- viscosity (328.15 K, x1 = 0.5761): 24.9 ± 1.5 mPa·s
- viscosity (328.15 K, x1 = 0.5993): 25.5 ± 1.5 mPa·s
- viscosity (328.15 K, x1 = 0.6261): 29.5 ± 1.8 mPa·s
- viscosity (328.15 K, x1 = 0.6316): 30.1 ± 1.8 mPa·s
- viscosity (328.15 K, x1 = 0.6478): 32.2 ± 1.9 mPa·s
- viscosity (328.15 K, x1 = 0.6554): 32 ± 1.9 mPa·s
- viscosity (328.15 K, x1 = 0.682): 34.4 ± 2.1 mPa·s
- viscosity (328.15 K, x1 = 0.7142): 37.1 ± 2.2 mPa·s
- viscosity (328.15 K, x1 = 0.7694): 39.8 ± 2.4 mPa·s
- viscosity (328.15 K, x1 = 0.7832): 40.5 ± 2.4 mPa·s
- mass density (328.15 K, x1 = 0.0911): 962.58 ± 10 kg/m3
- mass density (328.15 K, x1 = 0.1365): 987.46 ± 10 kg/m3
- mass density (328.15 K, x1 = 0.1798): 1011.93 ± 10 kg/m3
- mass density (328.15 K, x1 = 0.1829): 1013.72 ± 10 kg/m3
- mass density (328.15 K, x1 = 0.2293): 1040.86 ± 10 kg/m3
- mass density (328.15 K, x1 = 0.291): 1078.19 ± 10 kg/m3
- mass density (328.15 K, x1 = 0.3298): 1102.77 ± 10 kg/m3
- mass density (328.15 K, x1 = 0.3442): 1111.65 ± 10 kg/m3
- mass density (328.15 K, x1 = 0.3712): 1129.07 ± 10 kg/m3
- mass density (328.15 K, x1 = 0.3937): 1143.78 ± 10 kg/m3
- mass density (328.15 K, x1 = 0.4107): 1155.04 ± 10 kg/m3
- mass density (328.15 K, x1 = 0.421): 1161.92 ± 10 kg/m3
- mass density (328.15 K, x1 = 0.4479): 1180.89 ± 10 kg/m3
- mass density (328.15 K, x1 = 0.4707): 1195.74 ± 10 kg/m3
- mass density (328.15 K, x1 = 0.493): 1211.17 ± 10 kg/m3
- mass density (328.15 K, x1 = 0.5074): 1221.28 ± 10 kg/m3
- mass density (328.15 K, x1 = 0.5196): 1229.86 ± 10 kg/m3
- mass density (328.15 K, x1 = 0.5429): 1246.5 ± 10 kg/m3
- mass density (328.15 K, x1 = 0.5724): 1267.84 ± 10 kg/m3
- mass density (328.15 K, x1 = 0.5925): 1282.63 ± 10 kg/m3
- mass density (328.15 K, x1 = 0.6245): 1306.4 ± 10 kg/m3
- mass density (328.15 K, x1 = 0.6554): 1330.73 ± 10 kg/m3
- mass density (328.15 K, x1 = 0.7142): 1375.29 ± 10 kg/m3
- mass density (328.15 K, x1 = 0.725): 1383.85 ± 10 kg/m3
- mass density (328.15 K, x1 = 0.7592): 1411.1 ± 10 kg/m3
- mass density (328.15 K, x1 = 0.7694): 1419.7 ± 10 kg/m3
- mass density (328.15 K, x1 = 0.7845): 1430.74 ± 10 kg/m3
- electrical conductivity (338.15 K, x1 = 0.2984): 0.212 ± 0.021 S/m
- electrical conductivity (338.15 K, x1 = 0.3298): 0.226 ± 0.023 S/m
- electrical conductivity (338.15 K, x1 = 0.3968): 0.351 ± 0.035 S/m
- electrical conductivity (338.15 K, x1 = 0.4479): 0.356 ± 0.036 S/m
- electrical conductivity (338.15 K, x1 = 0.5761): 0.642 ± 0.064 S/m
- electrical conductivity (338.15 K, x1 = 0.6316): 0.891 ± 0.089 S/m
